This is an account of results in patent publication US8741803B2, “Pesticidal composition and method for controlling pest” (Kumiai Chemical Industry Co., Ltd., priority 2007, dated 2014).

Experiment [1] concerns two-spotted spider mites. Put plainly: Test Example 1: miticidal test on two-spotted spider mites (compound 6, flubendiamide and their mixture; soybean seedling dipping, 13 days). The format is in vivo, Tetranychus urticae. The following applies: Flubendiamide alone, 50.0 ppm, 25° C. The protocol: (§1) Each of the compound 6, flubendiamide, and a mixture of the compound 6 and flubendiamide was formulated into a wettable powder in accordance with Formulation Example 2. The respective formulations were diluted with water to an active ingredient concentration as identified in Table 15, and to the respective solutions, a spreader (KUMITEN manufactured by Kumiai Chemical Industry Co., Ltd.) was added at a concentration of 0.05% of the entire amount. Soybean seedlings which had been inoculated with imago two-spotted spider mites were dipped in each of the resulting solutions and dried in air. The seedlings were placed in a thermostatic chamber at 25° C. for 13 days, and the mite survivors were counted for calculation of the miticidal value by using Equation 2. The test was carried out by one series system. The predictive value in the Table was calculated based on the Colby formula (S. R. Colby (Weeds 15 (1967), 20-22) of Equation 1.
(§2) [formula] wherein X, Y and E are the following values.
(§3) X: The miticidal value of the component A at a predetermined concentration.
(§4) Y: The miticidal value of the component B at a predetermined concentration.
E: Predictive value (theoretical expected value) of the component A and the component B in combination at the respective predetermined concentrations. […]

In experiment [2] the test system is two-spotted spider mites. Put plainly: Test Example 2: miticidal test on two-spotted spider mites (compound 6, tebufenozide and their mixture; soybean seedling dipping, 13 days). The format is in vivo, Tetranychus urticae. Conditions: Tebufenozide alone, 100.0 ppm, 25° C.
Text: as §2, §3, §4
E: Predictive value (theoretical expected value) of the component A and the component B in combination at the respective predetermined concentrations.
(§5) When the practical miticidal value of the insecticide exceeds E (predictive value), a synergistic effect is obtained.
as §1, with “tebufenozide,” for “flubendiamide,”, “tebufenozide” for “flubendiamide”, “16,” for “15,”, “theoretical” for “predictive”, “formula” for “formula (S. R. Colby (Weeds 15 (1967), 20-22)”

The test system of a further experiment is cotton aphid. The experiment can be described thus: Test Example 3: insecticidal test on cotton aphid (compound 6, pyridalyl and their mixture; root zone irrigation of cucumber seedlings, 3 days). It counts as in vivo, Aphis qossypii. Conditions: Pyridalyl alone, 100.0 ppm, 25° C. As to the method:
as §2, §5
Each of the compound 6, pyridalyl, and a mixture of the compound 6 and pyridalyl was formulated into a wettable powder in accordance with Formulation Example 2. The respective formulations were diluted with water to an active ingredient concentration as identified in Table 17, and to the respective solutions, a spreader (KUMITEN manufactured by Kumiai Chemical Industry Co., Ltd.) was added at a concentration of 0.05% of the entire amount. The root zone of cucumber seedlings which had been inoculated with larvae of cotton aphid were irrigated with 5 mL of each of the solutions. The treated seedlings were placed in a thermostatic chamber at 25° C. for 3 days, and the survivors were counted for calculation of the insecticidal degree by Equation 3. The test was carried out by two series system. The predictive value in the Table was calculated based on the Colby formula of Equation 1.

For `Cc1cc(C(F)(C(F)(F)F)C(F)(F)F)ccc1NC(=O)c1cccc(I)c1C(=O)NC(C)(C)CS(C)(=O)=O` [flubendiamide], the Miticidal value in the experiment on two-spotted spider mites [1] is 13.
With `CCc1ccc(C(=O)NN(C(=O)c2cc(C)cc(C)c2)C(C)(C)C)cc1` [tebufenozide], the Miticidal value in the experiment on two-spotted spider mites [2] is given as 3.
For `FC(F)(F)c1ccc(OCCCOc2c(Cl)cc(OCC=C(Cl)Cl)cc2Cl)nc1` [pyridalyl], in the experiment with cotton aphid, the Insecticidal degree was 10.
